Reference: US10138244B2, “Triazolopyrazinone derivative useful as a human PDE1 inhibitor” (Eli Lilly and Company, priority 2016, dated 2018)

What was measured:
Assay type in all cases: biochemical
[1] = biological target: T1, human PDE1A (Homo sapiens, UniProt P54750); assay: Ca2+-calmodulin dependent PDE enzyme assay (SPA), PDE1A; conditions: human PDE1A 0.25 nM, [3H]cAMP 47 nM, calmodulin 6 U/ml; read-out: IC50 (nM) PDE 1A
T1 construct: encoding full-length human PDE1A (NP_001003683.1); HIS (N); made in house; host or cells: Sf9 (baculovirus, pFastBac1)
Text: (§1) The nucleotide sequences encoding full-length human PDE1A (NP_001003683.1), PDE1C (NP_005011.1), PDE5A (NP_001074.2), PDE7B (NP_061818.1) and PDE9A (NP_002597.1) are inserted into pFastBac1 (Invitrogen) vector with an N-terminal HIS tag. The nucleotide sequences encoding full-length human PDE4D (NP_006194.2) and catalytic domain (residue 641-1141) of PDE3A (NP_000912.3) are inserted into pFastBac1 (Invitrogen) vector with a C-terminal HIS tag. The nucleotide sequences encoding full-length human PDE8A (NP_002596.1) and PDE11A (AAI12394.1) are inserted into pFastBac1 (Invitrogen) vector with an N-terminal Flag tag. The nucleotide sequences encoding full-length human PDE10A (AAD32595.1) are inserted into pFastBac1 (Invitrogen) vector with a C-terminal Flag-His tag. The nucleotide sequences encoding full-length human PDE6A (NP_000431.2) and PDE6B (AAH00249.1) are inserted into pFastBacDual (Invitrogen) vector with an N-terminal HIS tag and N-terminal Flag tag, respectively, for production of PDE6A/6B dimer. […]
(§2) All 3′, 5′ cyclic nucleotide phosphodiesterase (PDE) enzyme activities are measured with a radiometric enzyme assay based on SPA detection system (scintillation proximity assay). […] Samples are read 12 hours later in a MICROBETA™ TRILUX® Counter. […] IC50 values are calculated by plotting the normalized data vs. log [compound] and fitting the data using a four parameter logistic equation. […]

[2] = biological target: T2, human PDE1B (Homo sapiens, UniProt Q01064); assay: Ca2+-calmodulin dependent PDE enzyme assay (SPA), PDE1B; conditions: human PDE1B 0.074 nM, [3H]cAMP 47 nM, calmodulin 6 U/ml; read-out: IC50 (nM) PDE 1B
T2 construct: encoding full-length human PDE1B (NP_000915.1); HIS (C); made in house; host or cells: Sf9 (pIEX4)
Text: as §1, §2

[3] = biological target: T3, human PDE1C (Homo sapiens, UniProt Q14123); assay: Ca2+-calmodulin dependent PDE enzyme assay (SPA), PDE1C; conditions: human PDE1C 0.0012 nM, [3H]cAMP 47 nM, calmodulin 6 U/ml; read-out: IC50 (nM) PDE 1C
T3 construct: full-length human PDE1A (NP_001003683.1), PDE1C (NP_005011.1); HIS (N); made in house; host or cells: Sf9 (baculovirus, pFastBac1)
Text: as §1, §2

[4] = biological target: T4, human PDE3A (catalytic domain) (Homo sapiens, UniProt Q14432); assay: PDE enzyme assay using [3H]cAMP as substrate (SPA), PDE3A; conditions: human PDE3A catalytic domain 0.008 nM, [3H]cAMP 47 nM
T4 construct: catalytic domain (residue 641-1141) of PDE3A (NP_000912.3); HIS (C); made in house; host or cells: Sf9 (baculovirus, pFastBac1)
Text: as §1, with “tag.” for “tag. The nucleotide sequences encoding full-length human PDE6A (NP_000431.2) and PDE6B (AAH00249.1) are inserted into pFastBacDual (Invitrogen) vector with an N-terminal HIS tag and N-terminal Flag tag, respectively, for production of PDE6A/6B dimer.”
(§3) All 3′, 5′ cyclic nucleotide phosphodiesterase (PDE) enzyme activities are measured with a radiometric enzyme assay based on SPA detection system (scintillation proximity assay). […] Samples are read 12 hours later in a MICROBETA™ TRILUX® Counter. […] IC50 values are calculated by plotting the normalized data vs. log [compound] and fitting the data using a four parameter logistic equation.
(§4) The following phosphodiesterase activities are measured using [^3H]cAMP as reaction substrate: human PDE3A (catalytic domain), human PDE4D, human PDE7B and human PDE8A. […]

[5] = biological target: T5, human PDE4D (Homo sapiens, UniProt Q08499); assay: PDE enzyme assay using [3H]cAMP as substrate (SPA), PDE4D; conditions: human PDE4D 0.021 nM, [3H]cAMP 47 nM
T5 construct: encoding full-length human PDE4D (NP_006194.2); HIS (C); made in house; host or cells: Sf9 (baculovirus, pFastBac1)
Text: as §1, with “tag.” for “tag. The nucleotide sequences encoding full-length human PDE6A (NP_000431.2) and PDE6B (AAH00249.1) are inserted into pFastBacDual (Invitrogen) vector with an N-terminal HIS tag and N-terminal Flag tag, respectively, for production of PDE6A/6B dimer.”
as §3, §4

[6] = biological target: T6, human PDE7B (Homo sapiens, UniProt Q9NP56); assay: PDE enzyme assay using [3H]cAMP as substrate (SPA), PDE7B; conditions: human PDE7B 0.5 nM, [3H]cAMP 47 nM
T6 construct: full-length human PDE1A (NP_001003683.1), PDE1C (NP_005011.1), PDE5A (NP_001074.2), PDE7B (NP_061818.1); HIS (N); made in house; host or cells: Sf9 (baculovirus, pFastBac1)
Text: as §1, with “tag.” for “tag. The nucleotide sequences encoding full-length human PDE6A (NP_000431.2) and PDE6B (AAH00249.1) are inserted into pFastBacDual (Invitrogen) vector with an N-terminal HIS tag and N-terminal Flag tag, respectively, for production of PDE6A/6B dimer.”
as §3, §4

[7] = biological target: T7, human PDE8A (Homo sapiens, UniProt O60658); assay: PDE enzyme assay using [3H]cAMP as substrate (SPA), PDE8A; conditions: human PDE8A 0.06 nM, [3H]cAMP 47 nM
T7 construct: encoding full-length human PDE8A (NP_002596.1); Flag (N); made in house; host or cells: Sf9 (baculovirus, pFastBac1)
Text: as §1, with “tag.” for “tag. The nucleotide sequences encoding full-length human PDE6A (NP_000431.2) and PDE6B (AAH00249.1) are inserted into pFastBacDual (Invitrogen) vector with an N-terminal HIS tag and N-terminal Flag tag, respectively, for production of PDE6A/6B dimer.”
as §3, §4

[8] = biological target: T8, human PDE2A (Homo sapiens, UniProt O00408); assay: PDE enzyme assay using [3H]cGMP as substrate (SPA), PDE2A; conditions: human PDE2A 0.2 nM, [3H]cGMP 80 nM
T8 construct: full-length human PDE1B (NP_000915.1) and PDE2A (NP_002590.1); HIS (C); made in house; host or cells: Sf9 (pIEX4)
Text: as §1, with “tag.” for “tag. The nucleotide sequences encoding full-length human PDE6A (NP_000431.2) and PDE6B (AAH00249.1) are inserted into pFastBacDual (Invitrogen) vector with an N-terminal HIS tag and N-terminal Flag tag, respectively, for production of PDE6A/6B dimer.”
as §3
(§5) The following phosphodiesterase activities are measured using [^3H]cGMP as reaction substrate: human PDE2A, human PDE5A, human PDE6A/6B, human PDE9A, human PDE10A and human PDE11A. […]

[9] = biological target: T9, human PDE5A (Homo sapiens, UniProt O76074); assay: PDE enzyme assay using [3H]cGMP as substrate (SPA), PDE5A; conditions: human PDE5A 0.002 nM, [3H]cGMP 80 nM
T9 construct: full-length human PDE1A (NP_001003683.1), PDE1C (NP_005011.1), PDE5A (NP_001074.2); HIS (N); made in house; host or cells: Sf9 (baculovirus, pFastBac1)
Text: as §1, with “tag.” for “tag. The nucleotide sequences encoding full-length human PDE6A (NP_000431.2) and PDE6B (AAH00249.1) are inserted into pFastBacDual (Invitrogen) vector with an N-terminal HIS tag and N-terminal Flag tag, respectively, for production of PDE6A/6B dimer.”
as §3, §5

[10] = biological target: T10, human PDE6A/6B (Homo sapiens, UniProt P16499+P35913); assay: PDE enzyme assay using [3H]cGMP as substrate (SPA), PDE6A/6B dimer; conditions: human PDE6AB dimer 5 nM, [3H]cGMP 80 nM; read-out: IC50 (nM) PDE 6AB
T10 construct: encoding full-length human PDE6A (NP_000431.2) and PDE6B (AAH00249.1); HIS (N); Flag (N); made in house; host or cells: Sf9 (baculovirus, pFastBacDual)
Text: as §1, with “tag.” for “tag. The nucleotide sequences encoding full-length human PDE6A (NP_000431.2) and PDE6B (AAH00249.1) are inserted into pFastBacDual (Invitrogen) vector with an N-terminal HIS tag and N-terminal Flag tag, respectively, for production of PDE6A/6B dimer.”
as §3, §5

[11] = biological target: T11, human PDE9A (Homo sapiens, UniProt O76083); assay: PDE enzyme assay using [3H]cGMP as substrate (SPA), PDE9A; conditions: human PDE9A 1 nM, [3H]cGMP 20 nM
T11 construct: full-length human PDE1A (NP_001003683.1), PDE1C (NP_005011.1), PDE5A (NP_001074.2), PDE7B (NP_061818.1) and PDE9A (NP_002597.1); HIS (N); made in house; host or cells: Sf9 (baculovirus, pFastBac1)
Text: as §1, with “tag.” for “tag. The nucleotide sequences encoding full-length human PDE6A (NP_000431.2) and PDE6B (AAH00249.1) are inserted into pFastBacDual (Invitrogen) vector with an N-terminal HIS tag and N-terminal Flag tag, respectively, for production of PDE6A/6B dimer.”
as §3, §5

[12] = biological target: T12, human PDE10A (Homo sapiens, UniProt Q9Y233); assay: PDE enzyme assay using [3H]cGMP as substrate (SPA), PDE10A; conditions: human PDE10A 0.03 nM, [3H]cGMP 80 nM
T12 construct: encoding full-length human PDE10A (AAD32595.1); Flag-His (C); made in house; host or cells: Sf9 (baculovirus, pFastBac1)
Text: as §1, with “tag.” for “tag. The nucleotide sequences encoding full-length human PDE6A (NP_000431.2) and PDE6B (AAH00249.1) are inserted into pFastBacDual (Invitrogen) vector with an N-terminal HIS tag and N-terminal Flag tag, respectively, for production of PDE6A/6B dimer.”
as §3, §5

[13] = biological target: T13, human PDE11A (Homo sapiens, UniProt Q9HCR9); assay: PDE enzyme assay using [3H]cGMP as substrate (SPA), PDE11A; conditions: human PDE11A 0.03 nM, [3H]cGMP 80 nM
T13 construct: full-length human PDE8A (NP_002596.1) and PDE11A (AAI12394.1); Flag (N); made in house; host or cells: Sf9 (baculovirus, pFastBac1)
Text: as §1, with “tag.” for “tag. The nucleotide sequences encoding full-length human PDE6A (NP_000431.2) and PDE6B (AAH00249.1) are inserted into pFastBacDual (Invitrogen) vector with an N-terminal HIS tag and N-terminal Flag tag, respectively, for production of PDE6A/6B dimer.”
as §3, §5

T10 sequence (P16499 whole entry): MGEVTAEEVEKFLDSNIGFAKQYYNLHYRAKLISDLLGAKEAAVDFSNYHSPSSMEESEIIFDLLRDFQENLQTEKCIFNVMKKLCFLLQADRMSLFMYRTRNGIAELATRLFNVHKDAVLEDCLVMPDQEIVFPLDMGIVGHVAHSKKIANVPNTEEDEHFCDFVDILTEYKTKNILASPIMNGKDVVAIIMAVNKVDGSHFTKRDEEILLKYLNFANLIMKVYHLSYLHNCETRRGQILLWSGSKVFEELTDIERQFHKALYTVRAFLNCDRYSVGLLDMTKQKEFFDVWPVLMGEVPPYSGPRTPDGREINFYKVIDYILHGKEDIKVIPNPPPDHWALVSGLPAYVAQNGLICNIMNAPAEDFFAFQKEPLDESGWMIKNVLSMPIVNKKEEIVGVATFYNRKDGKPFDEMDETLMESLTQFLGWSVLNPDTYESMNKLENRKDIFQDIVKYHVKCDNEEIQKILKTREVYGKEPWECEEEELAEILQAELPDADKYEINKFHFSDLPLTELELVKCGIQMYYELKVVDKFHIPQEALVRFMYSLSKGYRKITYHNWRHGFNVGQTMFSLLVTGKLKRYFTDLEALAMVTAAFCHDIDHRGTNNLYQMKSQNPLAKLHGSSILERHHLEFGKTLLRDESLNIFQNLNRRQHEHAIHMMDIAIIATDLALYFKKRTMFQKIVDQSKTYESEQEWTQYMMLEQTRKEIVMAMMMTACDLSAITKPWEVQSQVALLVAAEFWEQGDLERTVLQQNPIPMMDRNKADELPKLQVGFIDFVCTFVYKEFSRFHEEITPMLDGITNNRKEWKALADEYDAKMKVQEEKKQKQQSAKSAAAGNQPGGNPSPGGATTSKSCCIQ
T10 sequence (P35913 1-853 isoform P35913-2): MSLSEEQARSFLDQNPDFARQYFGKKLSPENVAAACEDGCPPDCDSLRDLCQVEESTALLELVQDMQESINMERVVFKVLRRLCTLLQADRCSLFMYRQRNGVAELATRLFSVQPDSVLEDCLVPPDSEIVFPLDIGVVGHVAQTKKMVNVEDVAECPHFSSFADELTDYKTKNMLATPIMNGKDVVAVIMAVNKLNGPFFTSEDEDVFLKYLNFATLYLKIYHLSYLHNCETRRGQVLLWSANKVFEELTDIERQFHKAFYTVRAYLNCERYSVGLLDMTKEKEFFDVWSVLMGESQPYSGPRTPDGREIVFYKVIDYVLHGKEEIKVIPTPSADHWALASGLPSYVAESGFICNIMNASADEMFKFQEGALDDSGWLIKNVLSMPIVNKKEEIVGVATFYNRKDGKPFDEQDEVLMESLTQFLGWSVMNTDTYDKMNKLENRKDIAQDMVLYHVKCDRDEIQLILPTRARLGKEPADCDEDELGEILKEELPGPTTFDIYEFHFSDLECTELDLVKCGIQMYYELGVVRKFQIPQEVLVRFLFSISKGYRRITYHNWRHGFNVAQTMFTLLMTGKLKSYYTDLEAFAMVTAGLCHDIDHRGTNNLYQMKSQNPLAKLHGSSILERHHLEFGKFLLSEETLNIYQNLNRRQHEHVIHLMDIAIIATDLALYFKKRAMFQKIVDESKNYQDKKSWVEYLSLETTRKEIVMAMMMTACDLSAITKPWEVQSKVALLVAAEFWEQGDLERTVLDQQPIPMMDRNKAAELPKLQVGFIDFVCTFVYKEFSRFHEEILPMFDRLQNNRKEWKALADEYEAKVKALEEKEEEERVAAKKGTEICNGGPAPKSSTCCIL
T8 sequence (O00408 whole entry): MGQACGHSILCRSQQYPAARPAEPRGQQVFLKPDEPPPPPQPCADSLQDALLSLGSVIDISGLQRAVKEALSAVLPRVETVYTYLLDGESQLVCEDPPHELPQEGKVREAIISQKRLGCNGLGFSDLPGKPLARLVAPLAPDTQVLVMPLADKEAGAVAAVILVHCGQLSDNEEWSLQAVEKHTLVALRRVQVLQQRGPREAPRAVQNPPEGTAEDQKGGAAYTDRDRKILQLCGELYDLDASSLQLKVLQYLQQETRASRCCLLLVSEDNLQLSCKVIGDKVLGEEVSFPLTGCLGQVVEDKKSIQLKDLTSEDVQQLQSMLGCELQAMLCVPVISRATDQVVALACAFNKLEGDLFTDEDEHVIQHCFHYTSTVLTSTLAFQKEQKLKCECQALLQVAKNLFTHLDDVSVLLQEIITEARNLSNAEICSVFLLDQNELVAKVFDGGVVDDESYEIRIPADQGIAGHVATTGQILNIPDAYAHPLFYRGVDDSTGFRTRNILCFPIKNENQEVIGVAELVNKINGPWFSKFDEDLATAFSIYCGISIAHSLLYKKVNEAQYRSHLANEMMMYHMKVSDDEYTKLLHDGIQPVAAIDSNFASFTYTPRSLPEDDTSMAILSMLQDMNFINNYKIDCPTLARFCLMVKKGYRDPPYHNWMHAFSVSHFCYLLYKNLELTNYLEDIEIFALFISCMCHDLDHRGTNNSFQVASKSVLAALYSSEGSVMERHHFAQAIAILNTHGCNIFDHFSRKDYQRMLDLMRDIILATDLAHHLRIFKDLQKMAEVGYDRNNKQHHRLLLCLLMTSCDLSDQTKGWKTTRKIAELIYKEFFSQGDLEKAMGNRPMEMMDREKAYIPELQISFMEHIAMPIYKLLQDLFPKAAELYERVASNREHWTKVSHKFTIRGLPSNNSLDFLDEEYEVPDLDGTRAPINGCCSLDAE
T11 sequence (O76083 whole entry): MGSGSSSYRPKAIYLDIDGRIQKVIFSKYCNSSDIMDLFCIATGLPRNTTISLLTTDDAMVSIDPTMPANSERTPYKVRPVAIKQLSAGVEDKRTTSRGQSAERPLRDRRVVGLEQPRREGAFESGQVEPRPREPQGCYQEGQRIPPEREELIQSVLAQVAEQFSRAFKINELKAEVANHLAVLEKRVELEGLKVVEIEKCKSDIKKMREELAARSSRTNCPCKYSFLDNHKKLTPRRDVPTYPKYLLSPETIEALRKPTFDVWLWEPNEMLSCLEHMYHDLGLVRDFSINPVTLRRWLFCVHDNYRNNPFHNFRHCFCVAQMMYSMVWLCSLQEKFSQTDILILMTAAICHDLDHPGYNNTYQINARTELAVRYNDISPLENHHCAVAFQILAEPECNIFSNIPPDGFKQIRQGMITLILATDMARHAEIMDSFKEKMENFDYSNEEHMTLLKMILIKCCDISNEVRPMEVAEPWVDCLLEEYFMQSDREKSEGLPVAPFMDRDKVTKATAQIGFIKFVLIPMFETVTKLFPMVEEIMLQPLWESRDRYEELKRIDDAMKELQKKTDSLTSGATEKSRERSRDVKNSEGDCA
T7 sequence (O60658 whole entry): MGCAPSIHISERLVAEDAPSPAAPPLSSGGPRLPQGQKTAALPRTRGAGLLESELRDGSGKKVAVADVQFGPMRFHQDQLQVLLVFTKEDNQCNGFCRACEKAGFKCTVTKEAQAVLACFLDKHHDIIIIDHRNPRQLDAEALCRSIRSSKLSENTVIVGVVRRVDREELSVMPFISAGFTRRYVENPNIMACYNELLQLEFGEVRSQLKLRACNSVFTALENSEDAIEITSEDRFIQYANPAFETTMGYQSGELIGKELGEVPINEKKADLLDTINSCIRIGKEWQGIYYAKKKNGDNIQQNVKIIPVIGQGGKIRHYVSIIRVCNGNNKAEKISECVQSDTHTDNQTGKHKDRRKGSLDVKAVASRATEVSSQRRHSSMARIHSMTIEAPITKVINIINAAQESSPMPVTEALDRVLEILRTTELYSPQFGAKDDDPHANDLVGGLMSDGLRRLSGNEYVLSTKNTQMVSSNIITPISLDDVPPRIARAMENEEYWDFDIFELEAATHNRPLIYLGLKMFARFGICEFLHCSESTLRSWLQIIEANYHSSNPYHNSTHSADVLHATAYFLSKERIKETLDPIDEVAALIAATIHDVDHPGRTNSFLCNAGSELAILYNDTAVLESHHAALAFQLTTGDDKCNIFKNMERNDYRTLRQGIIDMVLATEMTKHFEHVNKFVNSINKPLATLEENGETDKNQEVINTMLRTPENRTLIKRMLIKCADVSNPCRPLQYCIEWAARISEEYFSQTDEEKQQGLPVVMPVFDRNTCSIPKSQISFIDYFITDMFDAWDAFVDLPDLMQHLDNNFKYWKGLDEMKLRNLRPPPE
T4 sequence (Q14432 641-1141): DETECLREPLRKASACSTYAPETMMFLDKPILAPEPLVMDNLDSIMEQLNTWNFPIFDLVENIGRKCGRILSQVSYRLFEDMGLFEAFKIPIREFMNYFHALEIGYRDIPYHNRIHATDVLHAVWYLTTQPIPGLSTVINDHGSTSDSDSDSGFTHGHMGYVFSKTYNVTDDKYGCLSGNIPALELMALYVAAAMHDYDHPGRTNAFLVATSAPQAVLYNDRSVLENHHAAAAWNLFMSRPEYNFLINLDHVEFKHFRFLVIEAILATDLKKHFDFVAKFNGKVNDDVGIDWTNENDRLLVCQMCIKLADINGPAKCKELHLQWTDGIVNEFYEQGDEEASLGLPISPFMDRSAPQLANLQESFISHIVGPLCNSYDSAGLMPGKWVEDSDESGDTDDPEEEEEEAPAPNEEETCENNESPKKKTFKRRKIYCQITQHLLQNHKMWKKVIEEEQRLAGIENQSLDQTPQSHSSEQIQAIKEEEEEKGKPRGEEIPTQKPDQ
T6 sequence (Q9NP56 whole entry): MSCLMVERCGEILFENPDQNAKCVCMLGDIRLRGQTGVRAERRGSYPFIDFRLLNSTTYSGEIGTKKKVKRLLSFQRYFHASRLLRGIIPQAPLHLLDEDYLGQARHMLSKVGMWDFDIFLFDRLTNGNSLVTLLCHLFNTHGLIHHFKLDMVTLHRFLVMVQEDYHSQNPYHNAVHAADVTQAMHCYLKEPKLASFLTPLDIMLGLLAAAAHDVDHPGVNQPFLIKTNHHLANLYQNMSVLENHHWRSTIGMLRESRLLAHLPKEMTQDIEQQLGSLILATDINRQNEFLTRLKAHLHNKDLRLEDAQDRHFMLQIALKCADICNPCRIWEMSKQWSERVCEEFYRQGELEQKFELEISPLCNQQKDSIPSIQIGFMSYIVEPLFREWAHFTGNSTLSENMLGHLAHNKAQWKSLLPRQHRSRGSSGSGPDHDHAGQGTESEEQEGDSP

Question: How did the IC50 [1] turn out when `CCCCn1c(=O)c2nnc(C3(C)CC3)n2c2ncccc21` [Example 1, 5-butyl-9-(1-methylcyclopropyl)pyrido[3,2-e][1,2,4]triazolo[4,3-a]pyrazin-6(5H)-one] was run?
Answer: 10.9 ± 2.6 nM

Question: And the IC50 [2]?
Answer: 16.3 ± 9.1 nM

Question: What about the IC50 [3] of the same compound?
Answer: 2.65 ± 0.9 nM

Question: What about the IC50 [4] of the same compound?
Answer: > 100000 nM

Question: And the IC50 [5]?
Answer: 11900 ± 1580 nM

Question: And the IC50 [6]?
Answer: 4170 nM

Question: And the IC50 [7]?
Answer: > 10000 nM

Question: And the IC50 [8]?
Answer: > 10000 nM

Question: And the IC50 [9]?
Answer: 3130 nM

Question: What about the IC50 [10] of the same compound?
Answer: 2460 ± 247 nM

Question: And the IC50 [11]?
Answer: > 10000 nM

Question: And the IC50 [12]?
Answer: 9340 nM

Question: And the IC50 [13]?
Answer: 389 ± 179 nM
